# Measured values: US20010025105A1, “Certain substituted 1-aryl-3-piperazine-1'-yl propanones” (Molecular Geriatarics Corporation, priority 1997, published 2001)
# pIC50: −log10 of the molar value.
# Key:
# [1] = system: TG3 immunoreactivity in OKA treated MSN1a cells; test: MSN1a cell culture model, ELISA with TG3 antibody, okadaic acid treated cells; format: cell-based, human; conditions: 1 μM OKA, 2 hrs at 37° C., read-out: IC50 for inhibition of TG3 immunoreactivity in OKA treated MSN1a cells
# In short: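 Human MSN1a neuroblastoma cells (2×10^4/well) in KRH pH 7.4 were exposed 2 h at 37 °C to 1 μM okadaic acid plus 0–64 μM compound (0.26% DMSO final). Lysates were coated onto ELISA plates and probed with TG3 and an alkaline phosphatase secondary. Absorbance was read at 405 nm with p-nitrophenyl phosphate substrate.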
# Candida albicans SRI 523 = test: Agar disc diffusion assay; format: cell-based; conditions: 240 ug/disc, about 24 hr at 37° C.
# Description: (§1) The activity of the compounds is determined using the following assay. The compound is dissolved in DMSO at a concentration of 6 mg/ml and then diluted with water to a final concentration of 3 mg/ml in 50% DMSO (% DMSO was shown not to be inhibitory to the test organisms). An aliquot (0.08 ml) of each drug solution was transferred to filter paper discs (12.7 mm diameter, Scmeicherand Schuell) for use in the agar diffusion assay. The concentration of each drug on the filter paper disc was 240 ug/disc. The test organisms included the following: Gram-positive aerobes (Staphylococcus aureus SRI 1323, Streptococcus pneumoniae SRI 1167); Gram-negative aerobe (Proteus vulgaris SRI 180); and the yeast Candida albicans SRI 523. An agar disc diffusion assay was used to evaluate the antimicrobial activity of the test compounds. Briefly, cultures were prepared from 16-20 hr agar slant cultures by inoculating in physiological saline to a turbidity equivalent to a #0.5 McFarland turbidity standard for the bacteria and a #3 McFarland standard for C. albicans. The surface of Mueller-Hinton agar (15×100 mm plates, mm) were evenly inoculated with each standardized culture using a cotton swab. Filter paper discs containing the drug concentration listed above were then placed on the inoculated agar plates along with a disc containing the solvent used to dissolve each drug. The plates were incubated at 37° C. for about 24 hr and the diameters of the zones of inhibition measured with a vernier caliper. Positive control drugs consisted of streptomycin for use with the bacterial strains and 5-fluorocytosine for use with C. albicans. The positive control drugs were assayed as described above for the compounds of the present invention using the same concentration.
# [2] = system: Streptococcus pneumoniae SRI 1167; test: Agar disc diffusion assay; format: cell-based; conditions: 240 ug/disc, about 24 hr at 37° C.; + = zone too large to measure
# Description: as §1
# Proteus vulgaris SRI 180 = test: Agar disc diffusion assay; format: cell-based; conditions: 240 ug/disc, about 24 hr at 37° C.; 0 = no measurable zone
# Description: as §1
# [3] = system: Staphylococcus aureus SRI 1323; test: Agar disc diffusion assay; format: cell-based; conditions: 240 ug/disc, about 24 hr at 37° C.
# Description: as §1
smiles,measurement,setting,value
"Cl.Cl.O=C(CCN1CCN(Cc2ccccc2)CC1)c1ccc(F)c2ccccc12 [Example 21, 1-(4″-Fluoronaphth-1″-yl)-3-(4′-benzyl-1′-piperazinyl)-1-propanone dihydrochloride]",pIC50,[1],5.18
same,"Diameter of the zone of inhibition, C. albicans",Candida albicans SRI 523,26.6 mm
same,"Diameter of the zone of inhibition, S. pneumoniae",[2],40.7 mm
same,"Diameter of the zone of inhibition, P. vulgaris",Proteus vulgaris SRI 180,0^1 mm
same,"Diameter of the zone of inhibition, S. aureus",[3],33.8 mm
